Earlier results as cited in patent US9962342B1, “Pharmaceutical composition containing guaifenesin and application thereof” (Sunny Pharmtech Inc., priority 2017, dated 2018).

Conditions: in vivo

- half-life: approximately 1 hour
SMILES: COc1ccccc1OCC(O)CO (stereo not shown) [Guaifenesin]
